Measurements published in US9302999B2, “Substituted triazoles as herbicides” (E. I. DU PONT DE NEMOURS AND COMPANY, priority 2012, dated 2016).

Legend:
Assay type in all cases: in vivo
[1] = tested on: foxtail, green (green foxtail, Setaria viridis); test: Test D pre-/postemergence: foxtail, green
Outline: (§1)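 Species were sown in silt loam and sprayed preemergence, or grown in peat/vermiculite medium and sprayed postemergence at the 1- to 4-leaf stage (2–18 cm), with compounds in a surfactant-containing solvent. Injury was visually rated against untreated controls after 14–21 days, on a 0 (no effect) to 100 (complete control) scale.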

[2] = tested on: deadnettle (henbit deadnettle, Lamium amplexicaule); test: Test D pre-/postemergence: deadnettle
Outline: as §1

kochia (Kochia scoparia) = test: Test D pre-/postemergence: kochia
Outline: as §1

[3] = tested on: lambsquarters (Chenopodium album); test: Test D pre-/postemergence: lambsquarters
Outline: as §1

[4] = tested on: mustard, wild (wild mustard, Sinapis arvensis); test: Test D pre-/postemergence: mustard, wild
Outline: as §1

corn (Zea mays) = test: Test F pre-/postemergence: corn
Outline: (§2)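 Preemergence treatment of seeds sown in silt loam soil, and postemergence treatment of plants 2–18 cm tall (1- to 4-leaf stage), with compounds in non-phytotoxic solvent plus surfactant. Greenhouse 14–21 days, then visual rating versus controls on 0–100 scale (100 = complete control).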

[5] = tested on: velvetleaf (Abutilon theophrasti); test: Test F pre-/postemergence: velvetleaf; settings: Preemergence
Outline: as §2

[6] = tested on: waterhemp (common waterhemp, Amaranthus rudis); test: Test F pre-/postemergence: waterhemp; settings: Preemergence
Outline: as §2

[7] = tested on: dayflower, VA (Virginia (VA) dayflower, Commelina virginica); test: Test F pre-/postemergence: dayflower, VA
Outline: as §2

[8] = tested on: nightshade (eastern black nightshade, Solanum ptycanthum); test: Test F pre-/postemergence: nightshade; settings: Preemergence
Outline: as §2

[9] = Postemergence, 31 g ai/ha, scale 0 to 100 (0 no effect, 100 complete control)
[10] = Postemergence, 62 g ai/ha, scale 0 to 100 (0 no effect, 100 complete control)
[11] = Postemergence, 125 g ai/ha, scale 0 to 100, 0 no effect, 100 complete control
[12] = Postemergence, 16 g ai/ha, scale 0 to 100
[13] = Preemergence, 16 g ai/ha, scale 0 to 100, 0 no effect, 100 complete control
[14] = Preemergence, 31 g ai/ha, scale 0 to 100, 0 no effect, 100 complete control
[15] = Preemergence, 62 g ai/ha, scale 0 to 100
[16] = Preemergence, 125 g ai/ha, scale 0 to 100
[17] = Postemergence, 8 g ai/ha, scale 0 to 100
[18] = Postemergence, 31 g ai/ha, scale 0 to 100
[19] = Postemergence, 62 g ai/ha, scale 0 to 100
[20] = Postemergence, 125 g ai/ha, scale 0 to 100
[21] = Preemergence, 8 g ai/ha, scale 0 to 100, 0 no effect, 100 complete control
[22] = 8 g ai/ha, scale 0 to 100, 0 no effect, 100 complete control
[23] = 16 g ai/ha, scale 0 to 100, 0 no effect, 100 complete control
[24] = 31 g ai/ha, scale 0 to 100, 0 no effect, 100 complete control

SMILES: CCOc1nn(-c2ccc(F)cc2)nc1Cc1ccnc(C(F)(F)F)c1 [Compound 196, 4-[[5-ethoxy-2-(4-fluorophenyl)-2H-1,2,3-triazol-4-yl]methyl]-2-(trifluoromethyl)pyridine]
- Plant response rating: Foxtail, Green [1, 9]: 80
- Plant response rating: Foxtail, Green [1, 10]: 85
- Plant response rating: Foxtail, Green [1, 11]: 95
- Plant response rating, Foxtail, Green [1, 12]: 55
- Plant response rating, Foxtail, Green [1, 13]: 60
- Plant response rating, Foxtail, Green [1, 14]: 60
- Plant response rating, Foxtail, Green [1, 15]: 75
- Plant response rating, Foxtail, Green [1, 16]: 100
- Plant response rating: Deadnettle [2, 9]: 100
- Plant response rating: Deadnettle [2, 10]: 100
- Plant response rating: Deadnettle [2, 11]: 100
- Plant response rating, Deadnettle [2, 12]: 85
- Plant response rating, Deadnettle [2, 13]: 10
- Plant response rating, Deadnettle [2, 14]: 40
- Plant response rating, Deadnettle [2, 15]: 100
- Plant response rating, Deadnettle [2, 16]: 100
- Plant response rating: Kochia (kochia (Kochia scoparia); [9]): 85
- Plant response rating: Kochia (kochia (Kochia scoparia); [10]): 90
- Plant response rating: Kochia (kochia (Kochia scoparia); [11]): 90
- Plant response rating, Kochia (kochia (Kochia scoparia); [12]): 70
- Plant response rating, Kochia (kochia (Kochia scoparia); [13]): 35
- Plant response rating, Kochia (kochia (Kochia scoparia); [14]): 70
- Plant response rating, Kochia (kochia (Kochia scoparia); [15]): 100
- Plant response rating, Kochia (kochia (Kochia scoparia); [16]): 100
- Plant response rating: Lambsquarters [3, 9]: 90
- Plant response rating: Lambsquarters [3, 10]: 90
- Plant response rating: Lambsquarters [3, 11]: 95
- Plant response rating, Lambsquarters [3, 12]: 85
- Plant response rating, Lambsquarters [3, 13]: 55
- Plant response rating, Lambsquarters [3, 14]: 65
- Plant response rating, Lambsquarters [3, 15]: 100
- Plant response rating, Lambsquarters [3, 16]: 100
- Plant response rating: Mustard, Wild [4, 9]: 100
- Plant response rating: Mustard, Wild [4, 10]: 100
- Plant response rating: Mustard, Wild [4, 11]: 100
- Plant response rating, Mustard, Wild [4, 12]: 100
- Plant response rating, Mustard, Wild [4, 13]: 35
- Plant response rating, Mustard, Wild [4, 14]: 95
- Plant response rating, Mustard, Wild [4, 15]: 100
- Plant response rating, Mustard, Wild [4, 16]: 100
- Plant response rating, Corn (corn (Zea mays); [17]): 15
- Plant response rating, Corn (corn (Zea mays); [12]): 15
- Plant response rating, Corn (corn (Zea mays); [18]): 20
- Plant response rating, Corn (corn (Zea mays); [19]): 20
- Plant response rating, Corn (corn (Zea mays); [20]): 25
- Plant response rating, Corn (corn (Zea mays); [21]): 0
- Plant response rating, Corn (corn (Zea mays); [13]): 0
- Plant response rating, Corn (corn (Zea mays); [14]): 0
- Plant response rating, Corn (corn (Zea mays); [15]): 5
- Plant response rating, Corn (corn (Zea mays); [16]): 30
- Plant response rating, Velvetleaf [5, 22]: 0
- Plant response rating, Velvetleaf [5, 23]: 10
- Plant response rating, Velvetleaf [5, 24]: 20
- Plant response rating, Velvetleaf ([5]; 125 g ai/ha, scale 0 to 100): 95
- Plant response rating, Waterhemp [6, 22]: 50
- Plant response rating, Waterhemp [6, 23]: 95
- Plant response rating, Waterhemp [6, 24]: 98
- Plant response rating, Waterhemp ([6]; 125 g ai/ha, scale 0 to 100): 100
- Plant response rating, Dayflower, VA [7, 17]: 30
- Plant response rating, Dayflower, VA [7, 12]: 50
- Plant response rating, Dayflower, VA [7, 18]: 60
- Plant response rating, Dayflower, VA [7, 19]: 60
- Plant response rating, Dayflower, VA [7, 20]: 70
- Plant response rating, Dayflower, VA [7, 21]: 5
- Plant response rating, Dayflower, VA [7, 13]: 35
- Plant response rating, Dayflower, VA [7, 14]: 35
- Plant response rating, Dayflower, VA [7, 15]: 50
- Plant response rating, Dayflower, VA [7, 16]: 65
- Plant response rating, Nightshade [8, 22]: 95
- Plant response rating, Nightshade [8, 23]: 95
- Plant response rating, Nightshade [8, 24]: 95
- Plant response rating, Nightshade ([8]; 125 g ai/ha, scale 0 to 100): 100
